Results from US11292801B2, “Calpain modulators and therapeutic uses thereof” (Blade Therapeutics, Inc., priority 2016, dated 2022).

Tests used:
Human Calpain 9/NS1 = target: T1, Human Calpain 9/NS1 (Homo sapiens, UniProt O14815); assay: Biochemical inhibition of calpain 9, continuous fluorescence (FRET substrate) assay; settings: mean, read-out: Human Calpain 9/NS1 IC50 (nM)_MEAN
T1 sequence (O14815 1-690): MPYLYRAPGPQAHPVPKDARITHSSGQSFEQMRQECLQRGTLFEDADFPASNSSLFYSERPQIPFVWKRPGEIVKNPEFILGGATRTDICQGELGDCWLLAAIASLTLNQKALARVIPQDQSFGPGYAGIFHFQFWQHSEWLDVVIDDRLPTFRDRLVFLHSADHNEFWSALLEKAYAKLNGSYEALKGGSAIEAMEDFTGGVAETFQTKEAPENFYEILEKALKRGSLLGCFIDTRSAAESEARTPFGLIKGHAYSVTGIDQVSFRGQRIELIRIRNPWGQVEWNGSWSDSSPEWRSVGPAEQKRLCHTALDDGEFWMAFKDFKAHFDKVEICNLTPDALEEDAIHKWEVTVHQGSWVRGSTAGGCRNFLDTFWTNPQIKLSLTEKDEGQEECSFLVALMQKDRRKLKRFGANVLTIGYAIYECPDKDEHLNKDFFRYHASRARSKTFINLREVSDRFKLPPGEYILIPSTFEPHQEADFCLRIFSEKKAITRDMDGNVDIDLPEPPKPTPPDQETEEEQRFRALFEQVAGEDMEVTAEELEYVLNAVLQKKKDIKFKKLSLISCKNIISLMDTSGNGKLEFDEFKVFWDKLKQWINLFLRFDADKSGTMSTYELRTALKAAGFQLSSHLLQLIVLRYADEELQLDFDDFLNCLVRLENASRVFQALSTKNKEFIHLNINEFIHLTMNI
T1 sequence (P04632 1-268 partner): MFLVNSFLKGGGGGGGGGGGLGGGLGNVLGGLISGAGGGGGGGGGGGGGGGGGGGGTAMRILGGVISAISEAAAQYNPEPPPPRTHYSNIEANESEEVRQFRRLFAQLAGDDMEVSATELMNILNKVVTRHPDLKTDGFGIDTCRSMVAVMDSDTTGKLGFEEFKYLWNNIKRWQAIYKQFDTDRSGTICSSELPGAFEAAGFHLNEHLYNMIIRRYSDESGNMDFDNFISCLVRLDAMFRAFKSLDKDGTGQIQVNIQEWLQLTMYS
Description: (§1) Calpain 1, 2, and 9 activity and inhibition thereof are assessed by means of a continuous fluorescence assay. The SensoLyte 520 Calpain substrate (Anaspec Inc) is optimized for detecting calpain activity. This substrate contains a novel internally quenched 5-FAM/QXL™ 520 FRET pair. Calpains 1, 2, and 9 cleave the FRET substrate into two separate fragments resulting in an increase of 5-FAM fluorescence that is proportional to calpain activity.
(§2) Assays are typically setup in black 384-well plates using automated liquid handling as follows. Calpain assay base buffer typically contains 50 mM Tris, pH˜7.5, 100 mM NaCl and 1 mM DTT. Inhibitors are serially diluted in DMSO and used to setup 2× mixtures with calpains in the aforementioned buffer. After incubation at ambient temperature (25C), the reaction is initiated by adding a 2× mix of the fluorescent peptide substrate and CaCl2) (required for in-situ calpain activation) in the same buffer. Reaction progress curve data are typically collected for 10 min using excitation/emission wavelengths of 490 nm/520 nm on SpectraMax i3× or the FLIPR-Tetra plate readers (Molecular Devices Inc). Reaction rates were calculated from progress curve slopes typically over 1-5 min. Dose response curves (rate vs. log inhibitor concentration) were typically fit to a 4-parameter logistic function to extract IC50 values.

Human Calpain 1/NS1 = target: T2, Human Calpain 1/NS1 (Homo sapiens, UniProt P07384); assay: Biochemical inhibition of calpain 1, continuous fluorescence (FRET substrate) assay; settings: mean, read-out: Human Calpain 1/NS1 IC50 (nM)_MEAN
T2 sequence (P07384 1-714): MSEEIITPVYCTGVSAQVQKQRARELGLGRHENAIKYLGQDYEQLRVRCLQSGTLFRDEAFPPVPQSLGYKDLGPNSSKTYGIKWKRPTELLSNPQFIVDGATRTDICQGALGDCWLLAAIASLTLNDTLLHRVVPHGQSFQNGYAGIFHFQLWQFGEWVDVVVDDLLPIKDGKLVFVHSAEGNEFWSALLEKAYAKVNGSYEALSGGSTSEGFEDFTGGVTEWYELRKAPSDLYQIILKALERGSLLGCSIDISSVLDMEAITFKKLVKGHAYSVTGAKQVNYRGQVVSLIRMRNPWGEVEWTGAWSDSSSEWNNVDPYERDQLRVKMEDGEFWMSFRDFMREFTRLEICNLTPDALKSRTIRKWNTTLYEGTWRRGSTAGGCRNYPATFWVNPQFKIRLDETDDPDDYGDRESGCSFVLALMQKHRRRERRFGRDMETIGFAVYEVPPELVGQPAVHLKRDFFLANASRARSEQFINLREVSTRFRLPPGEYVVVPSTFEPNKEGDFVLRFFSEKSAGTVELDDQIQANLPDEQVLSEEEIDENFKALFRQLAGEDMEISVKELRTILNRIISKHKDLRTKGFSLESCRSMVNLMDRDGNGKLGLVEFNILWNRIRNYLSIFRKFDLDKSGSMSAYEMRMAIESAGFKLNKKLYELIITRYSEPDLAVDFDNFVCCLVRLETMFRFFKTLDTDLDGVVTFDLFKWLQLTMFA
T2 sequence (P04632 1-268 partner): T1 sequence (P04632 1-268 partner)
Description: as §1, §2

Human Calpain 2/NS1 = target: T3, Human Calpain 2/NS1 (Homo sapiens, UniProt P17655); assay: Biochemical inhibition of calpain 2, continuous fluorescence (FRET substrate) assay; settings: mean, read-out: Human Calpain 2/NS1 IC50 (nM)_MEAN
T3 sequence (P17655 1-700): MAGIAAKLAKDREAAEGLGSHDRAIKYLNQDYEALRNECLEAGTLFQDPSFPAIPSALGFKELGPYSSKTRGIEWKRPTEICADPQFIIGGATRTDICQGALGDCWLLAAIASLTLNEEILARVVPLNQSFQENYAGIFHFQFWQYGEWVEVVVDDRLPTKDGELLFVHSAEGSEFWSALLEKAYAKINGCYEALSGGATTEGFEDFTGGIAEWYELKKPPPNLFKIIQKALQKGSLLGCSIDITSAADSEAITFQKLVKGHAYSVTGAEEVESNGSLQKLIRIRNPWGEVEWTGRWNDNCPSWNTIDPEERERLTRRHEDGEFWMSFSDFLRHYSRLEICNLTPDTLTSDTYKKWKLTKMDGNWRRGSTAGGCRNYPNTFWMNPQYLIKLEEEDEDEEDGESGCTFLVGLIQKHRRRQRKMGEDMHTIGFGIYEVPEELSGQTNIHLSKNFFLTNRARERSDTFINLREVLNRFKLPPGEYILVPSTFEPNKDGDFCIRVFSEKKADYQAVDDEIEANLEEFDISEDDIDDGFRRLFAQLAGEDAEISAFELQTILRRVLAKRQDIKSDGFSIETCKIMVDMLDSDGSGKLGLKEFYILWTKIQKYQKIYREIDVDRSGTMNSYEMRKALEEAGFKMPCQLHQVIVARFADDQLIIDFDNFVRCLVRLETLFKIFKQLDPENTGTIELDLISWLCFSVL
T3 sequence (P04632 1-268 partner): T1 sequence (P04632 1-268 partner)
Description: as §1, §2

Row | SMILES | IC50 (Human Calpain 9/NS1) | IC50 (Human Calpain 1/NS1) | IC50 (Human Calpain 2/NS1)
1 | O=C[C@@H]1CCCCCCCCCc2ccccc2C(=O)N1 [Compound 16, (S)-1-Oxo-1,2,3,4,5,6,7,8,9,10,11,12-dodecahydrobenzo[c][1]aza-cyclotetradecine-3-carbaldehyde] | < 3000 nM | 3000 to 10000 nM | < 3000 nM
2 | O=C[C@@H]1CC=CCCCCCc2ccccc2C(=O)N1 [Compound 14, (S)-1-Oxo-2,3,4,7,8,9,10,11-octahydro-1h-benzo[c][1]aza-cyclotridecine-3-carbaldehyde] | < 3000 nM | 3000 to 10000 nM | < 3000 nM
3 | O=C(NCc1ccccc1)C(=O)C1CCCCOCCOCc2ccccc2C(=O)N1 (stereo not drawn) [Compound 97, N-benzyl-2-oxo-2-(12-oxo-1,3,4,6,7,8,9,10,11,12-decahydrobenzo[f][1,4]dioxa[9]azacyclotetradecin-10-yl)acetamide] | < 3000 nM | > 10000 nM | > 10000 nM
4 | Cc1cc(C)cc(CNC(=O)C(=O)C2CCCCOCCOCc3ccccc3C(=O)N2)c1 (stereo not drawn) [Compound 111, N-(3,5-dimethylbenzyl)-2-oxo-2-(12-oxo-1,3,4,6,7,8,9,10,11,12-decahydrobenzo[f][1,4]dioxa[9]azacyclotetradecin-10-yl)acetamide] | < 3000 nM | > 10000 nM | 3000 to 10000 nM
5 | O=C[C@@H]1Cc2ccc(cc2)CC=CCc2cccc(c2)-c2ccn(n2)-c2ncccc2C(=O)N1 [Compound 75, (2^2E,10S)-12-oxo-2^1H-11-aza-1(2,3)-pyridina-2(1,3)-pyrazola-3(1,3),8(1,4)-dibenzenacyclododecaphan-5-ene-10-carbaldehyde] | < 3000 nM | < 3000 nM | < 3000 nM
6 | NC(=O)C(=O)[C@@H]1CCCCCOc2cccc(c2)-c2ncccc2C(=O)N1 [Compound 130, (S)-2-oxo-2-(11-oxo-3-oxa-10-aza-1(2,3)-pyridina-2(1,3)-benzena-cycloundecaphane-9-yl)acetamide] | < 3000 nM | < 3000 nM | < 3000 nM
7 | O=C(NCCc1ccc(Cl)cc1)C(=O)[C@@H]1C/C=C\COCCOCc2ccccc2C(=O)N1 [Compound 77, (S,Z)—N-(4-chlorophenethyl)-2-oxo-2-(12-oxo-1,3,4,6,9,10,11,12-octahydrobenzo[f][1,4]dioxa[9]azacyclotetradecin-10-yl)acetamide] | < 3000 nM | 3000 to 10000 nM | 3000 to 10000 nM
8 | COc1ccc(CCNC(=O)C(=O)C2CCCCOCCOCc3ccccc3C(=O)N2)cc1OC (stereo not drawn) [Compound 123, N-(3,4-dimethoxyphenethyl)-2-oxo-2-(12-oxo-1,3,4,6,7,8,9,10,11,12-decahydrobenzo[f][1,4]dioxa[9]azacyclotetradecin-10-yl)acetamide] | 3000 to 10000 nM | > 10000 nM | > 10000 nM

Second part, the compound after the results:

Row | IC50 (Human Calpain 9/NS1) | IC50 (Human Calpain 1/NS1) | IC50 (Human Calpain 2/NS1) | SMILES
9 | < 3000 nM | > 10000 nM | 3000 to 10000 nM | O=C(NCc1ccccc1)C(=O)[C@@H]1C/C=C/COCCOCc2ccccc2C(=O)N1 [Compound 4, (S,E)-N-benzyl-2-oxo-2-(12-oxo-1,3,4,6,9,10,11,12-octahydrobenzo[f][1,4]dioxa[9]azacyclotetradecin-10-yl)acetamide]
10 | < 3000 nM | 3000 to 10000 nM | < 3000 nM | O=C[C@@H]1CCCCOCCn2ccc3cccc(c32)C(=O)N1 [Compound 8, (S)-11-Oxo-2,3,4,5,8,9,10,11-octahydrobenzo[b][1]oxa[5]azacyclotridecine-9-carbaldehyde]
11 | < 3000 nM | 3000 to 10000 nM | < 3000 nM | O=C(NC1CC1)C(=O)[C@@H]1Cc2ccc(cc2)OC/C=C/COc2ccc3c(cnn3-c3ncccc3C(=O)N1)c2 [Compound 69, N-cyclopropyl-2-oxo-2-((5S,E)-3-oxo-1^1H-8,13-dioxa-4-aza-1(1,5)-indazola-2(2,3)-pyridina-7(1,4)-benzenacyclotridecaphan-10-en-5-yl)acetamide]
12 | < 3000 nM | 3000 to 10000 nM | < 3000 nM | O=C[C@@H]1CCCCCCCOc2ccccc2C(=O)N1 [Compound 6, (S)-11-Oxo-2,3,4,5,6,7,8,9,10,11-decahydrobenzo[b][1]oxa[5]azacyclotridecine-9-carbaldehyde]
13 | > 10000 nM | 3000 to 10000 nM | 3000 to 10000 nM | O=C[C@@H]1Cc2ccccc2CCCOCCCn2cncc2C(=O)N1 [Compound 22]
14 | 3000 to 10000 nM | > 10000 nM | > 10000 nM | O=C[C@@H]1CC=CCOCCOc2ccccc2C(=O)N1 [Compound 18, (S)-11-Oxo-2,3,8,9,10,11-hexahydro-5h-benzo[e][1,4]dioxa[8]azacyclotridecine-9-carbaldehyde]
15 | < 3000 nM | < 3000 nM | < 3000 nM | O=C[C@@H]1CCCCCCCCCCc2ccccc2C(=O)N1 [Compound 28, (S)-1-Oxo-2,3,4,5,6,7,8,9,10,11,12,13-dodecahydro-1h-benzo[c][1]aza-cyclopentadecine-3-carbaldehyde]
16 | 3000 to 10000 nM | > 10000 nM | > 10000 nM | O=C(NCCc1cccnc1)C(=O)C1CCCCOCCOCc2ccccc2C(=O)N1 (stereo not drawn) [Compound 101, 2-Oxo-2-(12-oxo-1,3,4,6,7,8,9,10,11,12-decahydrobenzo[f][1,4]dioxa[9]aza-cyclotetradecin-10-yl)-N-(2-(pyridin-3-yl)ethyl)acetamide]
17 | < 3000 nM | > 10000 nM | < 3000 nM | O=C[C@@H]1CCCCCCOc2ccccc2C(=O)N1 [Compound 24, (S)-10-Oxo-3,4,5,6,7,8,9,10-octahydro-2h-benzo[b][1]oxa[5]aza-cyclododecine-8-carbaldehyde]
